From patent US11780927B2, “Anti-CD40 antibodies for use in prevention of graft rejection” (NOVARTIS AG, priority 2018, dated 2023)

Assays:
[1] = test system: platelet aggregation; assay: Platelet function and blood hemostasis; type: cell-based
[2] = test system: human PBMCs; assay: rCD154 and IL-4-mediated proliferation (3H-TdR), human PBMCs; type: cell-based
[3] = test system: human B cell line RI-1; assay: Internalization by image flow cytometry; type: cell-based; details: 3 hours at 37° C.
Experimental: Internalization of fluorescently tagged CFZ533 and rCD154 was assessed in vitro using the human B cell line RI-1 (Th'ng et al, 1987). CD40 dependence of CFZ533 internalization was assessed using a CD40 knockout RI-1 cell line. Internalization was assessed using an Amnis® image flow cytometer (Merck KHaA, Darnstadt) according to the manufacturer's instructions and data analyzed using ImageStream®^X software.
FIG. 8B. Relative internalization erode of CFZ533 and rCD154 under permissive conditions (non-permissive erode values subtracted). Each dot represents data from an individual experiment and the population mean is indicated as a horizontal red line. FIG. 8C. Representative images of individual CD40 expressing or CD40 knock-out RI-1 cells cultured with Alexa488 labeled CFZ533 for 3 hours at 37° C. In all experiments, cells were co-stained with AlexaFlour 647 labeled CD45 to demark the cell membrane.

[4] = test system: RAJI B cells; assay: Complement-dependent cytotoxicity with rabbit complement; type: cell-based; details: 2 hours
Experimental: (§1) See supplementary material for detailed methods. Briefly, the ability of CFZ533 to mediated depletion of CD20^pos B cells was monitored in human whole blood over a period of three days in comparison to the B cell depleting antibody Rituximab. For CDC, CFZ533 or Rituximab were incubated with RAJI B cells in the presence or absence of rabbit complement and cell lysis was assessed by luminescence.
(§2) B cells numbers were determined based on CD45pos and CD19pos events falling within lymphocyte FSC (forward-scattered light)/SSC (side-scattered light) gate. Results for individual antibody concentrations were calculated as percent remaining B cells with reference to untreated samples and graphed as a function of log-transformed antibody concentration (adjusted to 100% and shown as a dotted line). Data represent the mean and SD of eight independent donors. […] Concentration dependent killing of the Raji cells was analyzed after 2 hours, where the viability of the cells was measured by determination of the ATP concentration in each well using luciferase. Results are presented as isotype-control normalized relative luciferase units (RLU) as a function of log-transformed antibody concentration.

[5] = Dose-range finding embryo-fetal development study; type: in vivo; details: rabbits
Description: Full guideline-conform reproductive toxicity studies have not been conducted thus far. However, a dose-range finding, embryo-fetal development (EFD) study in rabbits has been conducted in order to confirm the rabbit as relevant reproductive toxicology species.

[6] = test system: CD20pos B cells; assay: In vitro B cell depletion in human whole blood; type: cell-based; details: 72 hours; Rituximab 50 μg/ml, CFZ533 dose titration
Experimental: as §1, §2

[7] = test system: human whole blood, PBMCs, monocyte-derived DCs, HUVECs; assay: Stimulatory potential in vitro (proliferation, CD69, cytokines); type: cell-based
Experimental: The ability of CFZ533 to stimulate activation of human leukocytes was assessed using proliferation and upregulation of the activation molecule CD69 on B cells in whole blood. […] Human whole blood from multiple donors (n=13) were incubated with a dose titration of CFZ533, and proliferation (^3H-TdR) was assessed after three days of culture. ii. Human PBMCs from multiple donors (n=26) were incubated with a dose titration of CFZ533, and proliferation (^3H-TdR) was assessed after three days of culture. For both graphs, data is presented as mean and SD of normalized cpm as a function of log-transformed CFZ533 concentration (rCD154+IL-4=100; dotted lines, cells plus media=0; dashed lines). […] Human PBMCs were stimulated for 3 days with a dose titration of CFZ533 in the presence of IL-4 (i) or anti-IgM F(ab′)2. (ii). The mean and SD of 3H-TdR (cpm) is shown as a function of log-transformed CFZ533 concentration. In FIG. 6C it is shown how human whole blood (41 donors) was cultured overnight with no stimuli, CFZ533, isotype control or rCD154 and CD69 expression on B cells was assessed by FACS. Each dot represents data from a single donor with mean % CD69 values indicated by a horizontal red line.

[8] = test system: transplanted kidney grafts; assay: Allograft biopsies scored by Chronic Allograft Damage Index (CADI); type: in vivo, human
Description: The quality of the graft was estimated using the Chronic Allograph Damage Index (CADI) (Isoniemi et al. 1992 and 1994), where scores of ≤1 reflects normal renal histology and higher scores correlate with poor long-term outcome (Hayry et al. 2004, Yilmaz et al. 2007, Yilmaz et al. 2003). Pristine renal histology was found in 3 of 5 patients on iscalimab (60%) and in none of the 7 treated with tacrolimus (0%). The average CADI was 1.60±0.60 for CFZ533 (n=5) vs. 5.14±0.80 for tacrolimus (n=7), (mean±SEM, p<0.01 using Student t)
A PoC Study in de Novo Renal Transplantation (CCFZ533X2101/NCT02217410) using CFZ533 was performed. […] Allograft biopsies were performed on a subset of study patients. A pathologist, blinded to therapy, reviewed and scored all biopsy slides using the established Banff criteria and calculated the chronic allograft damage index (CADI, Nickerson P et al., Legendre C et al., Seron D et al.,). A CADI of 1 or less was considered as ‘normal renal histology’. Two patients were excluded from the analysis, since they switched therapy after only 2 months. […] The average CADI at final biopsy was 1.6±0.6 for CFZ533 and 5.1±0.8 for tacrolimus, p<0.01.

[9] = biological target: recombinant human CD40 (Homo sapiens, UniProt P25942); assay: Surface plasmon resonance analysis of affinity for CD40; type: binding
Experimental: The binding analyses of recombinant CFZ533 were performed at 25° C. with HBS−EP+ as running buffer. A typical binding analysis cycle consisted of three steps: (i) capture of the antibody via ProteinA immobilized on the chip surface, (ii) binding of CD40 antigen to the captured anti-CD40 antibody, and (iii) regeneration of the ProteinA surface. To determine the kinetic rate constants of the antigen-antibody binding interactions, binding data were processed, double referenced with responses from blank injections. The binding curves were fitted locally using the 1:1 interaction model of the Biacore T100 Evaluation software to determine kinetic rate constants. The value for the equilibrium dissociation constant (KD) was calculated as the ratio of the rate constants kd/ka. All binding measurements were performed in two independent experiments.

recombinant human CD40, sequence (P25942 21-277): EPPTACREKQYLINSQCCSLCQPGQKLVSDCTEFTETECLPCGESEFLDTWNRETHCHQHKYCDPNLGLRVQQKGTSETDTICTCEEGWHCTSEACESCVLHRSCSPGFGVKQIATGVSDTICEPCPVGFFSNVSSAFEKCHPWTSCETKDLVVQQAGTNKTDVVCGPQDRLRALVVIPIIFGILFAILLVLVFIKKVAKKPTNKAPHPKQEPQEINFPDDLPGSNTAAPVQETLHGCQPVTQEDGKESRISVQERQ

CFZ533: human anti-CD40 IgG1 monoclonal antibody with Fc-silencing N297A mutation; heavy chain SEQ ID NO: 9, light chain SEQ ID NO: 10
Platelet aggregation responses [1]: does not induce platelet aggregation responses | Effect of delayed addition on rCD154-induced cellular activation ([2]; added up to 6 hours after start of cultures containing rCD154): complete inhibition of cellular activation with minimal loss of potency | Inhibition of rCD154-induced proliferation (IC50 PBMCs) ([2]; human PBMCs): 0.02 µg/mL | IC50 ([2]; human PBMCs, read-out: IC50, rCD154-induced proliferation): 0.12 nM | Internalization by RI-1 B cells [3]: internalized | Complement-dependent cytotoxicity (CDC) of Raji B cells [4]: unable to mediate complement-dependent cytotoxicity | Effects on embryo-fetal development [5]: No effects on embryo-fetal development | B cells eliminated in human whole blood [6]: failed to mediate any cell depletion | Induction of thymidine incorporation (proliferation) ([7]; human whole blood (1:10 dilution) or PBMCs, three days): unable to induce thymidine incorporation | Induction of CD69 upregulation on B cells ([7]; human whole blood, overnight): unable to induce upregulation of CD69 | Induction of cytokine production ([7]; monocyte-derived DCs or HUVECs): unable to induce cytokine production | average CADI (mean±SEM) ([8]; final biopsy): 1.6±0.6 | patients with normal (pristine) renal histology, CADI of 1 or less ([8]; treated for up to 25 months): 60% | ka [1/Ms] ([9]; SPR, 25° C.): 3.13 ± 0.73 × 10^5 1/Ms | kd [1/s] ([9]; SPR, 25° C.): 0.93 ± 0.14 × 10^−4 1/s | Kd ([9]; surface plasmon resonance): 0.3 nM
